Test results published in ChEMBL document CHEMBL3885861, “Open TG-GATES”.

Organism: Rattus norvegicus
Assay: Open TG-GATES - Regimen: Daily Repeat
Type: toxicity, organism-based, Sprague-Dawley
Parameters: regimen Daily Repeat, gender Male, age 6 weeks
Conditions: in vivo, po, route gavage; for gamma-GTP / ALP / ALT / AST / BUN / CRE / Ca / Cl / DBIL / GLC / IP / K / LDH / Na / PL / RALB / TBIL / TC / TG / TP: tissue Plasma; for APTT / Bas / Eos / Fbg / Hb / Ht / Lym / MCH / MCHC / MCV / Mono / Neu / PT / Plat / RBC / Ret / WBC: tissue Blood; for KIDNEY_L / KIDNEY_R / KIDNEY_TOTAL: tissue Kidney; for LIVER: tissue Liver
[1] = 300 mg/kg, 72 h, dose level Middle, time 3 day
[2] = 300 mg/kg, […], dose level Middle, time 7 day
[3] = 300 mg/kg, […], dose level Middle, time 14 day
[4] = 300 mg/kg, […], dose level Middle, time 28 day
[5] = 1000 mg/kg, 72 h, dose level High, time 3 day
[6] = 1000 mg/kg, […], dose level High, time 7 day
[7] = 1000 mg/kg, […], dose level High, time 14 day
[8] = 1000 mg/kg, […], dose level High, time 28 day

## COC(=O)C1=C(C)NC(C)=C(C(=O)OC)C1c1ccccc1[N+](=O)[O-] [NIFEDIPINE]
100 mg/kg, […], dose level Low, time 28 day
  gamma-GTP: 1 IU/L
[1]
  TERMINAL_BW: 223.2 g
  APTT: 18.7 s
  Bas: 0.4%
  Eos: 1%
  Fbg: 277 mg/dL
  Hb: 13.5 g/dL
  Ht: 41.7%
  Lym: 73%
  MCH: 21.3 pg
  MCHC: 32.3%
  MCV: 66.1 fL
  Mono: 3.6%
  Neu: 21%
  PT: 13.8 s
  Plat: 123.7 x10_4/uL
  RBC: 630.8 x10_4/ul
  Ret: 10.7%
  WBC: 113.4 x10_2/uL
  KIDNEY_L: 0.9 g
  KIDNEY_R: 0.9 g
  KIDNEY_TOTAL: 1.9 g
  LIVER: 11.7 g
  ALP: 1580.8 IU/L
  ALT: 48.2 IU/L
  AST: 68.4 IU/L
  BUN: 14.2 mg/dL
  CRE: 0.2 mg/dL
  Ca: 10.9 mg/dL
  Cl: 107.2 meq/L
  DBIL: 0.018 mg/dL
  GLC: 165.8 mg/dL
  IP: 7.1 mg/dL
  K: 4 meq/L
  LDH: 84.2 IU/L
  Na: 144.4 meq/L
  PL: 159.2 mg/dL
  RALB: 2.6 g/dL
  TBIL: 0.03 mg/dL
  TC: 89.4 mg/dL
  TG: 94.2 mg/dL
  TP: 5.6 g/dL
  gamma-GTP: 1 IU/L
[2]
  TERMINAL_BW: 254 g
  APTT: 15.7 s
  Bas: 0.2%
  Eos: 1%
  Fbg: 292.6 mg/dL
  Hb: 13.9 g/dL
  Ht: 42.7%
  Lym: 69.4%
  MCH: 20.7 pg
  MCHC: 32.6%
  MCV: 63.6 fL
  Mono: 3%
  Neu: 26%
  PT: 13.6 s
  Plat: 128.9 x10_4/uL
  RBC: 671 x10_4/ul
  Ret: 6.2%
  WBC: 113.1 x10_2/uL
  KIDNEY_L: 1 g
  KIDNEY_R: 1 g
  KIDNEY_TOTAL: 2 g
  LIVER: 12.8 g
  ALP: 1439.4 IU/L
  ALT: 43.8 IU/L
  AST: 68.6 IU/L
  BUN: 15.4 mg/dL
  CRE: 0.2 mg/dL
  Ca: 10.8 mg/dL
  Cl: 107.6 meq/L
  DBIL: 0.012 mg/dL
  GLC: 167 mg/dL
  IP: 7 mg/dL
  K: 3.9 meq/L
  Na: 145.6 meq/L
  PL: 154.4 mg/dL
  RALB: 2.8 g/dL
  TBIL: 0.022 mg/dL
  TC: 83.4 mg/dL
  TG: 102 mg/dL
  TP: 5.9 g/dL
  gamma-GTP: 1 IU/L
[3]
  TERMINAL_BW: 319.9 g
  APTT: 19 s
  Bas: 0%
  Eos: 1%
  Fbg: 281.4 mg/dL
  Hb: 14.8 g/dL
  Ht: 44.7%
  Lym: 74.8%
  MCH: 20.6 pg
  MCHC: 33.2%
  MCV: 62.1 fL
  Mono: 3%
  Neu: 20%
  PT: 14 s
  Plat: 117.6 x10_4/uL
  RBC: 719 x10_4/ul
  Ret: 4.9%
  WBC: 97.5 x10_2/uL
  KIDNEY_L: 1.2 g
  KIDNEY_R: 1.2 g
  KIDNEY_TOTAL: 2.3 g
  LIVER: 14.9 g
  ALP: 1236.4 IU/L
  ALT: 47.6 IU/L
  AST: 69.4 IU/L
  BUN: 18.2 mg/dL
  CRE: 0.2 mg/dL
  Ca: 10.9 mg/dL
  Cl: 107.6 meq/L
  DBIL: 0.012 mg/dL
  GLC: 172.6 mg/dL
  IP: 7 mg/dL
  K: 4.2 meq/L
  LDH: 48 IU/L
  Na: 143.8 meq/L
  PL: 150 mg/dL
  RALB: 2.7 g/dL
  TBIL: 0.018 mg/dL
  TC: 79.6 mg/dL
  TG: 115.8 mg/dL
  TP: 5.8 g/dL
  gamma-GTP: 1 IU/L
[4]
  TERMINAL_BW: 380.8 g
  APTT: 18.7 s
  Bas: 0.4%
  Eos: 1%
  Fbg: 277 mg/dL
  Hb: 13.5 g/dL
  Ht: 41.7%
  Lym: 73%
  MCH: 21.3 pg
  MCHC: 32.3%
  MCV: 66.1 fL
  Mono: 3.6%
  Neu: 21%
  PT: 13.8 s
  Plat: 123.7 x10_4/uL
  RBC: 630.8 x10_4/ul
  Ret: 10.7%
  WBC: 113.4 x10_2/uL
  KIDNEY_L: 1.3 g
  KIDNEY_R: 1.2 g
  KIDNEY_TOTAL: 2.5 g
  LIVER: 15.8 g
  ALP: 1129.6 IU/L
  ALT: 40 IU/L
  AST: 73.8 IU/L
  BUN: 17.8 mg/dL
  CRE: 0.3 mg/dL
  Ca: 10.3 mg/dL
  Cl: 106.6 meq/L
  DBIL: 0.012 mg/dL
  GLC: 165 mg/dL
  IP: 5.7 mg/dL
  K: 3.8 meq/L
  LDH: 56.2 IU/L
  Na: 143.8 meq/L
  PL: 146 mg/dL
  RALB: 2.7 g/dL
  TBIL: 0.026 mg/dL
  TC: 73 mg/dL
  TG: 126.8 mg/dL
  TP: 6.1 g/dL
  gamma-GTP: 1 IU/L
[5]
  TERMINAL_BW: 202 g
  APTT: 21.7 s
  Bas: 0%
  Eos: 0.8%
  Fbg: 252.6 mg/dL
  Hb: 14 g/dL
  Ht: 42.2%
  Lym: 76.8%
  MCH: 20.5 pg
  MCHC: 33.2%
  MCV: 61.8 fL
  Mono: 3.2%
  Neu: 18.2%
  PT: 14.1 s
  Plat: 134.4 x10_4/uL
  RBC: 683.2 x10_4/ul
  Ret: 7.3%
  WBC: 97.2 x10_2/uL
  KIDNEY_L: 0.9 g
  KIDNEY_R: 0.9 g
  KIDNEY_TOTAL: 1.7 g
  ALP: 1290.2 IU/L
  ALT: 41.6 IU/L
  AST: 67.6 IU/L
  BUN: 14 mg/dL
  CRE: 0.2 mg/dL
  Cl: 107.8 meq/L
  DBIL: 0.016 mg/dL
  GLC: 153 mg/dL
  IP: 6.1 mg/dL
  K: 4.1 meq/L
  LDH: 69.6 IU/L
  Na: 143.6 meq/L
  PL: 123 mg/dL
  RALB: 2.5 g/dL
  TBIL: 0.032 mg/dL
  TC: 67.2 mg/dL
  TG: 54 mg/dL
  TP: 5.3 g/dL
  gamma-GTP: 0.8 IU/L
[6]
  TERMINAL_BW: 238.1 g
  APTT: 16.8 s
  Bas: 0.4%
  Eos: 0.8%
  Fbg: 253.4 mg/dL
  Hb: 14.1 g/dL
  Ht: 42.6%
  Lym: 71.4%
  MCH: 20.2 pg
  MCHC: 33.1%
  MCV: 61 fL
  Mono: 2.8%
  Neu: 23.8%
  PT: 14.2 s
  Plat: 142.6 x10_4/uL
  RBC: 701.2 x10_4/ul
  Ret: 5.9%
  WBC: 121.8 x10_2/uL
  KIDNEY_L: 1 g
  KIDNEY_R: 0.9 g
  KIDNEY_TOTAL: 1.9 g
  LIVER: 12.1 g
  ALP: 1072.4 IU/L
  ALT: 40.4 IU/L
  AST: 68.2 IU/L
  BUN: 15 mg/dL
  CRE: 0.2 mg/dL
  Cl: 105.8 meq/L
  DBIL: 0.016 mg/dL
  GLC: 155.6 mg/dL
  IP: 6.4 mg/dL
  K: 3.9 meq/L
  LDH: 86 IU/L
  Na: 144.2 meq/L
  PL: 129 mg/dL
  RALB: 2.7 g/dL
  TBIL: 0.028 mg/dL
  TC: 68.8 mg/dL
  TG: 70.6 mg/dL
  TP: 5.7 g/dL
  gamma-GTP: 1 IU/L
[7]
  TERMINAL_BW: 309.6 g
  APTT: 21.1 s
  Bas: 0.4%
  Eos: 0.6%
  Fbg: 267.4 mg/dL
  Hb: 14.3 g/dL
  Ht: 42.8%
  Lym: 73.8%
  MCH: 20.6 pg
  MCHC: 33.5%
  MCV: 61.4 fL
  Mono: 3%
  Neu: 21.4%
  PT: 13.8 s
  Plat: 120.3 x10_4/uL
  RBC: 697.2 x10_4/ul
  Ret: 5.8%
  WBC: 117.1 x10_2/uL
  KIDNEY_L: 1.2 g
  KIDNEY_R: 1.2 g
  KIDNEY_TOTAL: 2.4 g
  LIVER: 15.5 g
  ALP: 1620.8 IU/L
  ALT: 41.6 IU/L
  AST: 66.6 IU/L
  BUN: 18.6 mg/dL
  CRE: 0.2 mg/dL
  Ca: 11 mg/dL
  Cl: 104.2 meq/L
  DBIL: 0.012 mg/dL
  GLC: 172.8 mg/dL
  IP: 7.3 mg/dL
  K: 4 meq/L
  LDH: 51 IU/L
  Na: 143.4 meq/L
  PL: 161 mg/dL
  RALB: 2.8 g/dL
  TBIL: 0.018 mg/dL
  TC: 84.2 mg/dL
  TG: 101.8 mg/dL
  TP: 5.9 g/dL
  gamma-GTP: 1 IU/L
[8]
  TERMINAL_BW: 388.3 g
  APTT: 21.7 s
  Bas: 0%
  Eos: 0.8%
  Fbg: 252.6 mg/dL
  Hb: 14 g/dL
  Ht: 42.2%
  Lym: 76.8%
  MCH: 20.5 pg
  MCHC: 33.2%
  MCV: 61.8 fL
  Mono: 3.2%
  Neu: 18.2%
  PT: 14.1 s
  Plat: 134.4 x10_4/uL
  RBC: 683.2 x10_4/ul
  Ret: 7.3%
  WBC: 97.2 x10_2/uL
  KIDNEY_L: 1.4 g
  KIDNEY_R: 1.3 g
  KIDNEY_TOTAL: 2.7 g
  LIVER: 17.5 g
  ALP: 975.4 IU/L
  ALT: 40.2 IU/L
  AST: 64.4 IU/L
  BUN: 18.2 mg/dL
  CRE: 0.3 mg/dL
  Ca: 10.3 mg/dL
  Cl: 106.6 meq/L
  DBIL: 0.012 mg/dL
  GLC: 162.8 mg/dL
  IP: 5.8 mg/dL
  K: 3.7 meq/L
  LDH: 62.8 IU/L
  Na: 144.4 meq/L
  PL: 144 mg/dL
  RALB: 2.7 g/dL
  TBIL: 0.028 mg/dL
  TC: 73.6 mg/dL
  TG: 115.4 mg/dL
  TP: 6 g/dL
  gamma-GTP: 1 IU/L
